Results taken from US7166598B2, “Piperazine derivatives” (Astellas Pharma Inc., priority 1998, dated 2007).

SMILES | melting point
Cl.Cl.O=C(c1cc(C(F)(F)F)cc(C(F)(F)F)c1)N1CCN(CCCc2cccnc2)C[C@H]1Cc1ccc(Cl)cc1 | 60 to 100 °C
COc1cc(C(=O)N2CCN(CC#CCN3CCOCC3(C)C)C[C@H]2Cc2ccc(C)c(O)c2)cc(C(F)(F)F)c1.Cl.Cl | 181 to 188 °C
CS(=O)(=O)c1cc(C(=O)N2CCN(CCN3CCc4ncccc4C3)C[C@H]2Cc2ccc(C(F)(F)F)cc2)cc(C(F)(F)F)c1.Cl.Cl.Cl | 192 to 197 °C
COC[C@@H]1CN(CCN2CCN(C(=O)c3cc(C(F)(F)F)cc(S(=O)(=O)N4CCOCC4)c3)[C@H](Cc3ccc(C)c(O)c3)C2)CCO1.Cl.Cl | 130 to 175 °C
COc1cc(C(=O)N2CCN(CC#CCN3CCOCC3(C)C)C[C@H]2Cc2ccc(F)cc2)cc(C(F)(F)F)c1.Cl.Cl | 137.5 to 140.7 °C
CN(C)S(=O)(=O)c1cc(C(=O)N2CCN(CCN3CCc4ncccc4C3)C[C@H]2Cc2ccc(C(F)(F)F)cc2)cc(C(F)(F)F)c1.Cl.Cl.Cl | 190 to 194 °C
Cl.Cl.Cl.O=C(c1cc(F)cc(C(F)(F)F)c1)N1CCN(CCN2CCc3ncccc3C2)C[C@H]1Cc1ccc(Cl)cc1 | 127.3 to 130.9 °C
Cl.Cl.Cl.Cl.O=C(c1cc(-c2ccncc2)cc(C(F)(F)F)c1)N1CCN(CCN2CCc3ncccc3C2)C[C@H]1Cc1ccc(C(F)(F)F)cc1 | 205 to 218 °C
COC[C@@H]1CN(CCN2CCN(C(=O)c3cc(C(F)(F)F)cc(S(=O)(=O)N(C)C)c3)[C@H](Cc3ccc(C)c(O)c3)C2)CCO1.Cl.Cl | 153.5 to 160 °C
COc1cc(C(=O)N2CCN(CC#CCN3CCOCC3(C)C)C[C@H]2Cc2ccc(Cl)cc2)cc(C(F)(F)F)c1.Cl.Cl | 110 to 140 °C
COC[C@@H]1CN(CCN2CCN(C(=O)c3cc(-c4ccncc4)cc(C(F)(F)F)c3)[C@H](Cc3ccc(C)c(O)c3)C2)CCO1.Cl.Cl.Cl | 169 to 173 °C
COc1cc(C(=O)N2CCN(CCN3CCc4ncccc4C3)C[C@H]2Cc2ccc(Cl)c(O)c2)cc(C(F)(F)F)c1.Cl.Cl.Cl | 225 to 240 °C (dec.)
COC[C@@H]1CN(CCN2CCN(C(=O)c3cc(OC)cc(C(F)(F)F)c3)[C@H](Cc3ccc(Cl)c(O)c3)C2)CCO1.Cl.Cl | 160 to 168 °C
COc1cc(C(=O)N2CCN(CCN3C[C@@H](C)O[C@@H](C)C3)C[C@H]2Cc2ccc(Cl)cc2)cc(C(F)(F)F)c1.Cl.Cl | 90 to 120 °C
CNc1noc(CN2CCN(C(=O)c3cc(C(F)(F)F)cc(C(F)(F)F)c3)[C@H](Cc3ccc(C)c(O)c3)C2)n1.Cl.Cl | 145 to 160 °C
Cl.Cl.O=C(c1cc(C(F)(F)F)cc(C(F)(F)F)c1)N1CCN(Cc2c[nH]c3cccnc23)C[C@H]1Cc1ccc(Cl)c(O)c1 | 208 to 211 °C

SMILES | melting point
Cc1ccc(C[C@@H]2CN(Cc3nc(N)no3)CCN2C(=O)c2cc(C(F)(F)F)cc(C(F)(F)F)c2)cc1O.Cl.Cl | 160 to 170 °C
CNc1cc(C(=O)N2CCN(CCN3CCO[C@H](COC)C3)C[C@H]2Cc2ccc(C)c(O)c2)cc(C(F)(F)F)c1.Cl.Cl | 159 to 170 °C
Cc1ccc(C[C@@H]2CN(Cc3cccnc3)CCN2C(=O)c2cc(C(F)(F)F)cc(C(F)(F)F)c2)cc1O.Cl.Cl | 110 to 130 °C
COC[C@@H]1CN(CCN2CCN(C(=O)c3cc(C)cc(C(F)(F)F)c3)[C@H](Cc3ccc(Cl)cc3)C2)CCO1.Cl.Cl | 148 to 151 °C
Cc1ccc(C[C@@H]2CN(C/C=C\c3cccnc3)CCN2C(=O)c2cc(C(F)(F)F)cc(C(F)(F)F)c2)cc1O.Cl.Cl | 85 to 130 °C
CSc1cc(C(=O)N2CCN(CCN3C[C@@H](C)O[C@@H](C)C3)C[C@H]2Cc2ccc(Cl)cc2)cc(C(F)(F)F)c1.Cl.Cl | 138.4 to 142.5 °C
COc1cc(C(=O)N2CCN(CCCc3cccnc3)C[C@H]2Cc2c[nH]c3ccccc23)cc(C(F)(F)F)c1.Cl.Cl | 135 to 145 °C
Cc1ccc(C[C@@H]2CN(Cc3nsc(N)n3)CCN2C(=O)c2cc(C(F)(F)F)cc(C(F)(F)F)c2)cc1O.Cl.Cl | 177 to 182 °C
COc1cc(C(=O)N2CCN(CCN3CCc4ncccc4C3)C[C@H]2Cc2ccc(Cl)cc2)cc(C(F)(F)F)c1.Cl.Cl.Cl | 140 to 170 °C
Cl.Cl.O=C(c1cc(C(F)(F)F)cc(C(F)(F)F)c1)N1CCN(CCCc2cccnc2)C[C@H]1Cc1ccc(Cl)c(O)c1 | 65 to 70 °C
C[C@@H]1CN(CCN2CCN(C(=O)c3cc(C(F)(F)F)cc(S(C)(=O)=O)c3)[C@H](Cc3ccc(Cl)cc3)C2)C[C@H](C)O1.Cl.Cl | 138.4 to 142.5 °C
Cl.Cl.O=C(c1cc(C(F)(F)F)cc(C(F)(F)F)c1)N1CCN(Cc2cccnc2)C[C@H]1Cc1ccc(Cl)cc1 | 220 to 228 °C (dec.)
COC[C@H]1CN(CCN2CCN(C(=O)c3cc(OC)cc(C(F)(F)F)c3)[C@H](Cc3c[nH]c4ccccc34)C2)CCO1.Cl.Cl | 200 to 210 °C
COc1cc(C(=O)N2CCN(Cc3cccnc3)C[C@H]2Cc2ccc3ccccc3c2)cc(C(F)(F)F)c1.Cl.Cl | 162 to 168 °C
COc1cc(C(=O)N2CCN(Cc3cnn(C)c3)C[C@H]2Cc2ccc(Cl)cc2)cc(C(F)(F)F)c1.Cl | 70 to 100 °C
Cc1ccc(C[C@@H]2CN(Cc3csc(N)n3)CCN2C(=O)c2cc(C(F)(F)F)cc(C(F)(F)F)c2)cc1O.Cl.Cl | 205 to 215 °C

Second part, the compound after the results:

melting point | SMILES
250 to 255 °C | Cl.Cl.O=C(c1cc(C(F)(F)F)cc(C(F)(F)F)c1)N1CCN(CCN2CCC(F)(F)CC2)C[C@H]1Cc1ccc(Cl)cc1
146 to 159 °C | COC[C@@H]1CN(CCN2CCN(C(=O)c3cc(C(F)(F)F)cc(C(F)(F)F)c3)[C@H](Cc3ccc(C(F)(F)F)cc3)C2)CCO1.Cl.Cl
232 to 250 °C | Cl.Cl.O=C(c1cc(C(F)(F)F)cc(C(F)(F)F)c1)N1CCN(CCN2CC3CCC(C2)O3)C[C@H]1Cc1ccc(C(F)(F)F)cc1
199 to 204 °C | COC[C@@H]1CN(CCN2CCN(C(=O)c3cc(F)cc(C(F)(F)F)c3)[C@H](Cc3ccc(Cl)cc3)C2)CCO1.Cl.Cl
240 to 243 °C | COc1cc(C[C@@H]2CN(CCN3CCC(F)(F)CC3)CCN2C(=O)c2cc(C(F)(F)F)cc(C(F)(F)F)c2)ccc1F.Cl.Cl
145 to 148 °C | COC[C@@H]1CN(CCN2CCN(C(=O)c3cc(C(F)(F)F)cc(C(F)(F)F)c3)[C@H](Cc3ccc4ccccc4c3)C2)CCO1.Cl.Cl
148 to 160 °C | COC[C@@H]1CN(CCN2CCN(C(=O)c3cc(C(F)(F)F)cc(C(F)(F)F)c3)[C@H](Cc3ccc(C)c(F)c3)C2)CCO1.Cl.Cl
203 to 208 °C | Cl.Cl.O=C(c1cc(C(F)(F)F)cc(C(F)(F)F)c1)N1CCN(Cc2cccnc2)C[C@H]1Cc1ccc(F)c(F)c1
203 to 208 °C | CO[C@H]1CN(CCN2CCN(C(=O)c3cc(C(F)(F)F)cc(C(F)(F)F)c3)[C@H](Cc3ccc(C(F)(F)F)cc3)C2)C[C@@H]1OC.Cl.Cl
137.6 to 142.5 °C | COc1cc(C[C@@H]2CN(CCN3C[C@@H](C)O[C@@H](C)C3)CCN2C(=O)c2cc(-c3ccncc3)cc(C(F)(F)F)c2)ccc1F.Cl.Cl.Cl
188 to 194 °C | COC[C@H]1CN(CCN2CCN(C(=O)c3cc(C(F)(F)F)cc(C(F)(F)F)c3)[C@H](Cc3ccc(C(F)(F)F)cc3)C2)CCO1.Cl.Cl
50 to 60 °C | Cl.Cl.O=C(c1cc(C(F)(F)F)cc(C(F)(F)F)c1)N1CCN(Cc2cccnc2)C[C@H]1Cc1ccc(F)c(O)c1
200 to 229 °C | Cl.Cn1cc(CN2CCN(C(=O)c3cc(C(F)(F)F)cc(C(F)(F)F)c3)[C@H](Cc3ccc(C(F)(F)F)cc3)C2)cn1
180 to 200 °C | COC[C@@H]1CN(C/C=C\CN2CCN(C(=O)c3cc(C(F)(F)F)cc(C(F)(F)F)c3)[C@H](Cc3ccc(C)c(O)c3)C2)CCO1.Cl.Cl
215 to 231 °C | CC1(C)CN(CCN2CCN(C(=O)c3cc(C(F)(F)F)cc(C(F)(F)F)c3)[C@H](Cc3ccc(C(F)(F)F)cc3)C2)CCO1.Cl.Cl
152 to 162 °C | COc1cc(C[C@@H]2CN(CCN3CCOC(C)(C)C3)CCN2C(=O)c2cc(C(F)(F)F)cc(C(F)(F)F)c2)ccc1F.Cl.Cl
210 to 220 °C | Cc1ccc(C[C@@H]2CN(CCN3[C@H](C)COC[C@@H]3C)CCN2C(=O)c2cc(C(F)(F)F)cc(C(F)(F)F)c2)cc1O.Cl.Cl
190 to 200 °C | COc1cc(C(=O)N2CCN(CCN3CCc4ncccc4C3)C[C@H]2Cc2ccc(C(F)(F)F)c(OC)c2)cc(C(F)(F)F)c1.Cl.Cl.Cl
153 to 170 °C | COC[C@@H]1CN(CCN2CCN(C(=O)c3cc(SC)cc(C(F)(F)F)c3)[C@H](Cc3ccc(C(F)(F)F)cc3)C2)CCO1.Cl.Cl
90 to 120 °C | COC[C@@H]1CN(CCN2CCN(C(=O)c3cc(C(F)(F)F)cc(C(F)(F)F)c3)[C@H](Cc3ccc(Cl)cc3)C2)CCO1.Cl.Cl
148 to 159 °C | C[C@@H]1CN(CCN2CCN(C(=O)c3cc(C(F)(F)F)cc(C(F)(F)F)c3)[C@H](Cc3ccc(C(F)(F)F)cc3)C2)C[C@H](C)O1.Cl.Cl
214 to 218 °C | COC[C@@H]1CN(CCN2CCN(C(=O)c3cc(C(F)(F)F)cc(C(F)(F)F)c3)C(Cc3ccc(C)c(O)c3)C2)[C@@H](C)CO1.Cl.Cl (stereo partly drawn) [4-(2), 1-[3,5-Bis(trifluoromethyl)benzoyl]-2-(3-hydroxy-4-methylbenzyl)-4-[2-[(2S,5S)-2-methoxymethyl-5-methylmorpholino]ethyl]piperazine dihydrochloride]
157 to 160 °C | COC[C@@H]1C[C@H](COC)CN(CCN2CCN(C(=O)c3cc(C(F)(F)F)cc(C(F)(F)F)c3)[C@H](Cc3ccc(C(F)(F)F)cc3)C2)C1.Cl.Cl
143.3 to 146.4 °C | Cl.Cn1cc(CN2CCN(C(=O)c3cc(C(F)(F)F)cc(C(F)(F)F)c3)[C@H](Cc3ccc(F)cc3)C2)cn1
160 to 180 °C | Cc1ccc(C[C@@H]2CN(Cc3cnn(C)c3)CCN2C(=O)c2cc(C(F)(F)F)cc(C(F)(F)F)c2)cc1O.Cl
185 to 191 °C | COc1cc(C(=O)N2CCN(CCN3CCc4ncccc4C3)C[C@H]2Cc2ccc(C(F)(F)F)cc2)cc(C(F)(F)F)c1.Cl.Cl.Cl
130 to 140 °C | COc1cc(C(=O)N2CCN(CCN3CCC(F)(F)CC3)C[C@H]2Cc2c[nH]c3ccccc23)cc(C(F)(F)F)c1.Cl.Cl
90 to 120 °C | Cc1ccc(C[C@@H]2CN(CCc3cccnc3)CCN2C(=O)c2cc(C(F)(F)F)cc(C(F)(F)F)c2)cc1O.Cl.Cl
